target: T1, recombinant alpha-glucosidase I (human full-length glucosidase I, Glu 1) (Homo sapiens, UniProt Q13724); assay: Alpha-glucosidase I assay (Amplex Red glucose detection, synthetic trisaccharide substrate); assay type: biochemical; details: Glucosidase 1; read-out: Glu 1 IC50
T1 construct: 6-His (C); made in house; host or cells: HEK-293T cells transduced with BacMam virus (virus raised in Sf9)
T1 sequence (Q13724 1-837): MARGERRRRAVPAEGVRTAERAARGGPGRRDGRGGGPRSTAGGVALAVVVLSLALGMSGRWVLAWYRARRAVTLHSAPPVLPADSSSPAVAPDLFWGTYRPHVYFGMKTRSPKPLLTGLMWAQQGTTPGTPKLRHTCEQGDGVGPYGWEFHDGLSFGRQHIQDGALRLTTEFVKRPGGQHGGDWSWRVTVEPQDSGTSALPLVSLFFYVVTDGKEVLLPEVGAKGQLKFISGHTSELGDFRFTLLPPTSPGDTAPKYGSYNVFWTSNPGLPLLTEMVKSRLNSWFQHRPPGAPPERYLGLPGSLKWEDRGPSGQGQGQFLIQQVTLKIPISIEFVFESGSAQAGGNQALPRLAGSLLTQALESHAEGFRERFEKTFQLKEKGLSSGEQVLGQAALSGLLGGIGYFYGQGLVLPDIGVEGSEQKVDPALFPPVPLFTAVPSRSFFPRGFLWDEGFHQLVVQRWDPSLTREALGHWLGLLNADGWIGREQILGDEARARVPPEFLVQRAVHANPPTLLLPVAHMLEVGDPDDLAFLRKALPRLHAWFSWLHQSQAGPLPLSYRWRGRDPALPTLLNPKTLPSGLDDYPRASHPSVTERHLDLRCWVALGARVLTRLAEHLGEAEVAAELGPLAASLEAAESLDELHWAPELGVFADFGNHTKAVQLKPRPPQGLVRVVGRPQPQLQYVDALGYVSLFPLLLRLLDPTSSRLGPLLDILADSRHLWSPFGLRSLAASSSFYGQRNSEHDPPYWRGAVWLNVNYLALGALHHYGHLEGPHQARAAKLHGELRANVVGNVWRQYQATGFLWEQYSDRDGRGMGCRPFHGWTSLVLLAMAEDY
Procedure, shortened: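 Human full-length glucosidase I, His-tagged, […] and Ni-purified. Enzyme preincubated with compound dilutions 60 min at 37° C, then synthetic trisaccharide substrate 90 min at 37° C; stopped with 1.5M Tris pH 8.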

**Q.** For `Cc1cc(NCc2cccc(CN3C[C@H](O)[C@@H](O)[C@H](O)[C@H]3CO)n2)cc(N2CCOCC2)c1` [Compound 1336, (2R,3R,4R,5S)-2-(hydroxymethyl)-1-{[6-({[3-methyl-5-(morpholin-4-yl)phenyl]amino}methyl)pyridin-2-yl]methyl}piperidine-3,4,5-triol], which IC50 is on record?
**A.** 30300 nM

**Q.** How did the IC50 turn out when `COc1cc(NCCCCCCN2C[C@H](O)[C@@H](O)[C@H](O)[C@H]2CO)cc(-c2ncccn2)c1` [Compound 1217, (2R,3R,4R,5S)-2-(hydroxymethyl)-1-(6-{[3-methoxy-5-(pyrimidin-2-yl)phenyl]amino}hexyl)piperidine-3,4,5-triol] was run?
**A.** 128 nM

**Q.** Which IC50 does the source give for `Cc1cc(NCc2cccc(CN3C[C@H](O)[C@@H](O)[C@H](O)[C@H]3CO)c2)cc(N2CCOCC2)c1` [Compound 1031, (2R,3R,4R,5S)-2-(hydroxymethyl)-1-{[3-({[3-methyl-5-(morpholin-4-yl)phenyl]amino}methyl)phenyl]methyl}piperidine-3,4,5-triol] here?
**A.** 93 nM

**Q.** For `O=[N+]([O-])c1cc(N2CC3CC2CO3)ccc1NCc1ccc(CN2C[C@@H](O)[C@H](O)[C@@H](O)[C@@H]2CO)cc1` (stereo in doubt) [Compound 1015, (2S,3S,4S,5R)-2-(hydroxymethyl)-1-[(4-{[(2-nitro-4-{2-oxa-5-azabicyclo[2.2.1]heptan-5-yl}phenyl)amino]methyl}phenyl)methyl]piperidine-3,4,5-triol], which IC50 is on record?
**A.** 9 nM

**Q.** Which IC50 does the source give for `Cc1cc(NCc2cnc(CN3C[C@H](O)[C@@H](O)[C@H](O)[C@H]3CO)cn2)cc(-c2ccc[nH]2)c1` [Compound 1330, (2R,3R,4R,5S)-2-(hydroxymethyl)-1-{[5-({[3-methyl-5-(1H-pyrrol-2-yl)phenyl]amino}methyl)pyrazin-2-yl]methyl}piperidine-3,4,5-triol] here?
**A.** 1420 nM

**Q.** With `Cc1nc(=O)c2cc(-c3ncccn3)ccc2n1CCCCCCN1C[C@H](O)[C@@H](O)[C@H](O)[C@H]1CO` [Compound 1246, 2-methyl-6-(pyrimidin-2-yl)-1-{6-[(2R,3R,4R,5S)-3,4,5-trihydroxy-2-(hydroxymethyl)piperidin-1-yl]hexyl}-1,4-dihydroquinazolin-4-one] as the compound, how does the IC50 read?
**A.** 112 nM

**Q.** For `Cc1cc(NCc2cccc(CN3C[C@H](O)[C@@H](O)[C@H](O)[C@H]3CO)c2)cc(-c2ccc[nH]2)c1` [Compound 1033, (2R,3R,4R,5S)-2-(hydroxymethyl)-1-{[3-({[3-methyl-5-(1H-pyrrol-2-yl)phenyl]amino}methyl)phenyl]methyl}piperidine-3,4,5-triol], which IC50 is on record?
**A.** 9 nM

**Q.** With `Cc1cc(NCc2cccc(CN3C[C@H](O)[C@@H](O)[C@H](O)[C@H]3CO)c2)cc(C2=COCCO2)c1` [Compound 1032, (2R,3R,4R,5S)-1-{[3-({[3-(5,6-dihydro-1,4-dioxin-2-yl)-5-methylphenyl]amino}methyl)phenyl]methyl}-2-(hydroxymethyl)piperidine-3,4,5-triol] as the compound, how does the IC50 read?
**A.** 16 nM

**Q.** For `N#Cc1ccc(F)cc1NCCCCCCN1C[C@H](O)[C@@H](O)[C@H](O)[C@H]1CO` [Compound 1251, 4-fluoro-2-({6-[(2R,3R,4R,5S)-3,4,5-trihydroxy-2-(hydroxymethyl)piperidin-1-yl]hexyl}amino)benzonitrile], which IC50 is on record?
**A.** 226 nM

**Q.** `NS(=O)(=O)c1cc(-c2ncccn2)ccc1NCCCCCCN1C[C@H](O)[C@@H](O)[C@H](O)[C@H]1CO` [Compound 1265, 5-(pyrimidin-2-yl)-2-({6-[(2R,3R,4R,5S)-3,4,5-trihydroxy-2-(hydroxymethyl)piperidin-1-yl]hexyl}amino)benzene-1-sulfonamide] was tested. Which IC50 did it give?
**A.** 282 nM

**Q.** For `N#Cc1cc(NCc2cccc(CN3C[C@H](O)[C@@H](O)[C@H](O)[C@H]3CO)c2)cc(N2CCOCC2)c1` [Compound 1042, 3-(morpholin-4-yl)-5-{[(3-{[(2R,3R,4R,5S)-3,4,5-trihydroxy-2-(hydroxymethyl)piperidin-1-yl]methyl}phenyl)methyl]amino}benzonitrile], which IC50 is on record?
**A.** 30 nM

**Q.** `[N-]=[N+]=Nc1ccc(NCCN(CCC(N)=O)CCN2C[C@H](O)[C@@H](O)[C@H](O)[C@H]2CO)c([N+](=O)[O-])c1` [Compound 1235] was tested. Which IC50 did it give?
**A.** 8110 nM

**Q.** Which IC50 does the source give for `COc1cc(NCCCCCCN2C[C@H](O)[C@@H](O)[C@H](O)[C@H]2CO)cc(-c2ncco2)c1` [Compound 1216, (2R,3R,4R,5S)-2-(hydroxymethyl)-1-(6-{[3-methoxy-5-(1,3-oxazol-2-yl)phenyl]amino}hexyl)piperidine-3,4,5-triol] here?
**A.** 67 nM

**Q.** With `Cc1cc(Br)cc(NCc2cccc(CN3C[C@H](O)[C@@H](O)[C@H](O)[C@H]3CO)c2)c1` [Compound 1021, (2R,3R,4R,5S)-1-[(3-{[(3-bromo-5-methylphenyl)amino]methyl}phenyl)methyl]-2-(hydroxymethyl)piperidine-3,4,5-triol] as the compound, how does the IC50 read?
**A.** 6 nM

**Q.** With `Nc1ccc(NCCc2ccccc2CCN2C[C@H](O)[C@@H](O)[C@H](O)[C@H]2CO)c([N+](=O)[O-])c1Cl` [Compound 1239, (2R,3R,4R,5S)-1-[2-(2-{2-[(4-amino-3-chloro-2-nitrophenyl)amino]ethyl}phenyl)ethyl]-2-(hydroxymethyl)piperidine-3,4,5-triol] as the compound, how does the IC50 read?
**A.** 1440 nM

**Q.** Which IC50 does the source give for `OC[C@@H]1[C@@H](O)[C@H](O)[C@@H](O)CN1CCCCCCNc1cc(Cl)cc(-c2ncco2)c1` [Compound 1211, (2R,3R,4R,5S)-1-(6-{[3-chloro-5-(1,3-oxazol-2-yl)phenyl]amino}hexyl)-2-(hydroxymethyl)piperidine-3,4,5-triol] here?
**A.** 112 nM

**Q.** Which IC50 does the source give for `[N-]=[N+]=Nc1ccc(NCCOCCN2C[C@H](O)[C@@H](O)[C@H](O)[C@H]2CO)c([N+](=O)[O-])c1` [Compound 1255, (2R,3R,4R,5S)-1-(2-{2-[(4-azido-2-nitrophenyl)amino]ethoxy}ethyl)-2-(hydroxymethyl)piperidine-3,4,5-triol] here?
**A.** 2010 nM

**Q.** For `O=S(=O)(Nc1cc(-c2ncccn2)ccc1NCCCCCCN1C[C@H](O)[C@@H](O)[C@H](O)[C@H]1CO)C1CC1` [Compound 1227, N-[5-(pyrimidin-2-yl)-2-({6-[(2R,3R,4R,5S)-3,4,5-trihydroxy-2-(hydroxy-methyl)piperidin-1-yl]hexyl}amino)phenyl]cyclopropanesulfonamide], which IC50 is on record?
**A.** 169 nM

**Q.** For `[N-]=[N+]=Nc1ccc(NCCS(=O)(=O)CCCN2C[C@H](O)[C@@H](O)[C@H](O)[C@H]2CO)c([N+](=O)[O-])c1` [Compound 1274, (2R,3R,4R,5S)-1-(3-{2-[(4-azido-2-nitrophenyl)amino]ethane-sulfonyl}propyl)-2-(hydroxymethyl)piperidine-3,4,5-triol], which IC50 is on record?
**A.** 1550 nM

**Q.** How did the IC50 turn out when `COc1ccc(CCCCCN2C[C@H](O)[C@@H](O)[C@H](O)[C@H]2CO)cc1` [Compound 1310, (2R,3R,4R,5S)-2-(hydroxymethyl)-1-[5-(4-methoxyphenyl)pentyl]piperidine-3,4,5-triol] was run?
**A.** 678 nM

**Q.** With `[N-]=[N+]=Nc1ccc(N2CC(OCCN3C[C@H](O)[C@@H](O)[C@H](O)[C@H]3CO)C2)c([N+](=O)[O-])c1` [Compound 1252, (2R,3R,4R,5S)-1-(2-{[1-(4-azido-2-nitrophenyl)azetidin-3-yl]oxy}ethyl)-2-(hydroxymethyl)piperidine-3,4,5-triol] as the compound, how does the IC50 read?
**A.** 1350 nM

**Q.** For `OC[C@@H]1[C@@H](O)[C@H](O)[C@@H](O)CN1CCCCCCNc1ccc(-c2ncccn2)cc1C(F)(F)F` [Compound 1258, (2R,3R,4R,5S)-2-(hydroxymethyl)-1-(6-{[4-(pyrimidin-2-yl)-2-(trifluoromethyl)phenyl]amino}hexyl)piperidine-3,4,5-triol], which IC50 is on record?
**A.** 32 nM

From US20250197372A1 (priority 2020, published 2025)
